The subject of series [1] is HIV. Kind of series: EC50 reported in WO 2014/100323. It is filed as cell-based. Conditions: A4 vs BIC; A5 vs A6. From the text:
Specifically, only two inhibitors—A4 and A5—are known to comprise a pyridin-2-ylmethyl moiety instead of a benzyl moiety [WO 2014/100323].

Series [2] deals with HIV. Particulars: read-out: EC50 in WO 2014/100323; cited from earlier work.
A short description of series [3]: Thermodynamic (shake-flask) solubility. Particulars: for solubility at 24 h: thermodynamic from solid. It is filed as physicochemical. As to the method: The test compound of general formula 1 or 2 (2 mg) was weighed into a glass vial. The pION universal buffer (0.5 ml) with pH 7.4 or deionized water was added to appropriate vials. The vials were tightly closed with a lid, placed on a rotating shaker, and incubated for 24 hours to balance the solution and the solid phase at the saturation point. Each resulting solution (200 μl) was taken (in duplicate) from the vials, placed in a 96-well MultiScreen Solubility Filter Plate (Millipore), and filtered using vacuum ([…]) into a polypropylene plate with a U-shaped bottom. If necessary, the filtrates were diluted with an appropriate buffer (water). Then, 120 μl of the filtarate (or a diluted filtrate) was transferred to a 96-well plate with a UV-transparent bottom and 60 μl/well of acetonitrile and 20 μl/well of DMSO were added and thoroughly mixed with a multichannel pipette (acetonitrile and DMSO were added to obtain a required composition of calibration standards, as described below). The optical density of the resulting solutions was measured on a multifunction Infinite 200 PRO plate reader in the wavelength range from 240 nm to 400 nm in steps of 10 nm. The value of ODλ for solutions was assessed at a wavelength chosen for plotting a calibration curve.
The concentration of a substance in the solution after the solubility test was evaluated using a calibration curve. A stock solution in DMSO with a concentration of 2 mg/ml was prepared from a separate sample. […] The range of final concentrations of the calibration curve was 0.2; 0.1; 0.05; 0.025; 0.0125; 0.00625, and 0 mg/ml. Calibration solutions were prepared in a 96-well UV plate as follows: 20 μl of a 10-fold stock solution in DMSO, 60 μl of acetonitrile, and 120 μl of the appropriate buffer were added to the well and stirred. The optical density of the resulting solutions was measured on a multifunction Infinite 200 PRO plate reader in the wavelength range from 240 nm to 400 nm with a step of 10 nm. The optimal wavelength typically corresponding to the absorption maximum was chosen, and a linear dependence of OD at a given wavelength on the concentration of the compound was obtained.
The concentration of the compound in the filtrate after the solubility test was calculated according to the formula:
shake-flask solubility=(ODλfiltrate−ODλblank)/(slope×1.67×filtrate dilution)
wherein slope means the slope of the calibration curve; 1.67 is the filtrate acetonitrile+DMSO dilution ratio; filtrate dilution is an additional dilution of the filtrate, if applicable.

A short description of series [4]: Pharmacokinetics in rat plasma, IV and oral. It is filed as in vivo, male Sprague-Dawley rats. Conditions: for Cmax: read-out: Cmax; for Tmax: read-out: Tmax. How it is done: The research was carried out on male Sprague-Dawley rats obtained from Charles River Laboratories (Germany). […] The age of the animals at the time of administration was 8-10 weeks. The animals were pre-catheterized so that all blood samples during the study of each substance could be taken from the same animals. Each substance was tested in 3 animals at each route of administration. The solution of test substances with a concentration of 0.2 mg/ml in 10% DMSO/10% Solutol/80% 0.05M N-methylglucamine was administered to rats intravenously in the tail vein at a dose of 1 mg/kg. Blood samples were collected at 5, 15, 30 min, 1, 2, 4, 8, and 24 hours after administration. Intragastric administration involved gavage using a solution with a concentration of 0.5 mg/ml in 0.5% methylcellulose at a dose of 5 mg/kg. Blood samples were collected at 15, 30 min, 1, 2, 4, 8, and 24 hours after administration. Blood (0.2 ml) was collected in polypropylene tubes containing 20 μl of 5% NaEDTA. Blood plasma was separated by centrifugation at 1500×g for 10 min and stored until testing at a temperature of −80° C. A pure acetonitrile-water (1:1) mixture (5 μl) was added to 45 μl of test samples. The samples were vortexed thoroughly for 10 seconds. Tolbutamide (100 μl) chilled to +4° C. (200 ng/ml in MeCN) was added to the samples and the mixture was vortexed. The samples were precipitated on ice at +4° C. for 15 minutes and then centrifuged at 2700 g for 10 min at +4° C. Supernatants (100 μl each) were transferred to a blank plate for HPLC/MS/MS analysis. The HPLC/MS/MS analysis was performed using an Agilent 1290 Infinity system coupled to an AB Sciex QTrap 6500 mass spectrometer. Pharmacokinetic analysis of plasma concentration vs time data was performed by a model-independent method using the Phoenix™ WinNonlin® 6.3 software (Pharsight Corp.). […]

The test system of series [5] is HIV. Conditions: depending on the method of analysis; read-out: Inhibitory activity EC50 (literature); cited from earlier work.
Setting [6] is: male, Sprague-Dawley, rat plasma, IV 1 mg/kg.
Setting [7] is: male, Sprague-Dawley, rat plasma, oral 5 mg/kg.

One may read the solubility as how much of the substance goes into solution per volume. By bioavailability is commonly meant dose-corrected exposure relative to a reference, in per cent. Read a low bioavailability as poor availability. The AUC(0-inf) is total exposure, with the tail of the curve extrapolated. Lower therefore signals low exposure. Broadly, the AUC(0-t) is the area under the concentration-time curve up to a stated or last time point. As a reminder, the MRT last is the average time that molecules of a dose stay in the body. Usually half-life stands for how long it takes for the measured level to halve. Low values mean fast loss, high ones slow loss. In general, Cmax refers to the peak of the concentration-time curve. For orientation: Tmax means the time at which the peak concentration occurs.

The structures appear in SMILES notation. pEC50: −log10 of the molar value. Converted amounts (≈) assume the structure as drawn. Where two headings read alike, the source gives them in different places.

With `O=C(NCc1ncccc1C(F)(F)F)c1cn2c(c(O)c1=O)C(=O)N1[C@@H]3CC[C@@H](C3)O[C@H]1C2` [Compound A4, (2S, 5R, 13aS)-8-hydroxy-7,9-dioxo-N-{[3-(trifluoromethyl)pyridin-2-yl]methyl}-2,3,4,5,7,9,13,13a-octahydro-2,5-methanpyrido[1′, 2′: 4,5]pyrazino[2,1-b][1,3]oxazepine-10-carboxamide], the “Decrease in activity relative to the benzyl analogue (times lower)” value in the series with HIV [1] is reported as 13.3. Moreover, the pEC50 in the series on HIV [2] was 7.48.

For `O=C(NCc1ncc(F)cc1F)c1cn2c(c(O)c1=O)C(=O)N1[C@H]3CC[C@H](C3)[C@@H]1C2` [Compound A5, (1R, 4S, 12aR)-N-[(3,5-difluoropyridin-2-yl)methyl]-7-hydroxy-6,8-dioxo-1,2,3,4,6,8,12,12a-octahydro-1,4-methanodipyrido [1,2-a: 1′, 2′-d]pyrazine-9-carboxamide], the “Decrease in activity relative to the benzyl analogue (times lower)” value in the series on HIV [1] is recorded as “almost twofold decrease in activity”. Also, the pEC50 in the series with HIV [2] was 7.75.

In the case of `C[C@H]1CO[C@@H]2Cn3cc(C(=O)NCc4ccc(F)cc4F)c(=O)c(O)c3C(=O)N12` [CAB, Cabotegravir, reference compound], in series [3] (aqueous buffer, pION universal buffer pH 7.4, 24 h, read-out: Solubility, pH 7.4, value), the solubility at 24 h was 5 µg/mL (≈ 12.3 µM). For the same compound, the “Solubility, water, value” in series [3] (deionized water, 24 h) worked out at 8 µg/mL (≈ 19.7 µM). In addition, the solubility at 24 h in series [3] (deionized water, water, read-out: Solubility in water) came to 8 µg/mL (≈ 19.7 µM). In series [4] (male, Sprague-Dawley, plasma, rat, oral 5 mg/kg vs IV 1 mg/kg, F=(AUClast PO/5·AUClast IV)·100), this compound returned a bioavailability of 8.8%. In series [4] (setting [6]), the AUC(0-inf) worked out at 232 µg·h/mL, the AUC(0-t) was 141 µg·h/mL, the MRT last came out at 9.19 h and the half-life was 18.3 h. For the same compound, in series [4] (setting [6]), the highest concentration (Cmax) is 17 µg/mL and the Tmax was found to be 0.08 h. Moreover, in series [4] (setting [7]), the AUC(0-inf) amounted to 158 µg·h/mL, the AUC(0-t) was determined as 62.3 µg·h/mL, the MRT last stood at 8.05 h and the half-life is 19.1 h. In addition, in series [4] (setting [7]), the Cmax came to 5.21 µg/mL and the Tmax was found to be 4.67 h. Also, the concentration at 8 h in series [4] (male, Sprague-Dawley, rat plasma, oral 5 mg/kg, 8 h, read-out: C8 h) was 4.34 µg/mL. Further, the concentration at 24 h in series [4] (male, Sprague-Dawley, rat plasma, oral 5 mg/kg, 24 h, read-out: C24 h) turned out to be 1.84 µg/mL. In addition, the kel in series [4] (rat plasma, IV 1 mg/kg) was 0.04 h⁻¹. This compound had a kel in series [4] (rat plasma, oral 5 mg/kg) of 0.04 h⁻¹. For the same compound, in the series with HIV [5], the pEC50 was 8.52 to 9.60.

In the case of `O=C(NCc1c(F)cc(F)cc1F)c1cn2c(c(O)c1=O)C(=O)N1[C@H]3CC[C@H](C3)O[C@@H]1C2` [BIC, Bictegravir], the figures for the pEC50 in the series on HIV [2] and with HIV [5] were 8.60 and 8.12 to 9.00, respectively.
